Holding throughout (test): DTP human tumour cell line panel, 48 h
Assay [1] relates to IGROV1 ovarian.
In assay [2] the test system is SNB-75 CNS.
In assay [3] the test system is SN12C renal.
For assay [4], the system named is RPMI-8226 leukemia.
Assay [5] deals with SNB-19 CNS.
In assay [6] the test system is SF-539 CNS.
The test system of assay [7] is UO-31 renal.
Assay [8] relates to SF-295 CNS.
The subject of assay [9] is OVCAR-8 ovarian.
In assay [10] the test system is MDA-MB-231 breast.

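Following 48 hours of exposure in 96-well plates, responses at five concentrations were used to interpolate endpoints linearly. GI50 = concentration required for 50% inhibition of growth. The concentration for full growth arrest is given as TGI.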

As a reminder, the TGI is the concentration giving total growth inhibition. A higher TGI goes with less potent growth arrest. Consider `O=c1c2c(-c3ccccc3)c3ccccc3nc2cnn1-c1ccccc1`, for which the TGI in assay [1], in assay [2], in assay [3], in assay [4], in [5] and in assay [6] was over 100 µM each time. For the same molecule, the TGI in assay [7], in [8] and in assay [9] was over 100 µM in each case.

As to `Clc1ccccc1CN1COc2c(ccc3cccnc23)C1`, the TGI in [1] is 11.6 µM; in [2], 21.1 µM; in [3] it was 23.2 µM; in [4] it was 7.15 µM; in [5], over 100 µM; in assay [6], 11.7 µM. The results for the concentration for total growth inhibition (TGI) in [7], in assay [8] and in [9] were 7.2 µM, 10.6 µM and 15.3 µM, respectively.

As for `N=c1c2ccccc2sc2nc3ccccc3n12`, the TGI in assay [1], in assay [3], in assay [5], in assay [6], in assay [7] and in [8] was over 100 µM in each case. In assay [9], this molecule came in with a total growth inhibition concentration (TGI) of over 100 µM.

In the case of `COC/N=C(\NC#N)NCOC`, the concentration for total growth inhibition (TGI) in assay [1] was over 100 µM; in assay [2], over 100 µM; in assay [3], over 100 µM; in assay [4] it was over 70.8 µM; in assay [5], over 100 µM; in [6], over 100 µM. Besides, the TGI in assay [7], in assay [8] and in [9] was over 100 µM in each case.

In the case of `COc1ccc(O)c(C(=O)CCC(=O)O)c1`, the total growth inhibition concentration (TGI) in [1], in assay [2], in assay [3], in [4], in assay [5] and in [6] was over 100 µM each time. The concentration for total growth inhibition (TGI) in assay [7], in assay [8] and in assay [9] was over 100 µM in each case.

In the case of `C1=Cc2nc1c(-c1ccccc1)c1ccc([nH]1)c(-c1ccccc1)c1nc(c(-c3ccccc3)c3ccc([nH]3)c2-c2ccccc2)C=C1`, the TGI in [1], in assay [2], in [3], in assay [4], in assay [5] and in assay [6] was over 100 µM each time. The TGI in assay [7], in [8] and in assay [9] was over 100 µM throughout.

As for `COC(=O)c1cc(=O)nc2cc3cccccc3n12`, the concentration for total growth inhibition (TGI) in assay [1], in assay [2], in assay [3], in [4], in assay [5] and in [6] was over 100 µM throughout. Besides, the TGI in assay [7], in [8] and in assay [9] was over 100 µM in each case.

For the molecule `CCOc1ccc(N=C(NC(=O)c2ccccc2)SC)cc1`, the TGI in [1], in assay [2], in assay [3], in [4], in assay [5] and in assay [6] was over 100 µM in each case. For the same molecule, the TGI in assay [7], in assay [8] and in [9] was over 100 µM in each case.

As to `CC1CC2(S(=O)(=O)c3ccccc3)ON1CC2S(=O)(=O)c1ccccc1` (stereo unspecified), the TGI in assay [1], in assay [2], in assay [3], in assay [4], in assay [5] and in [6] was over 100 µM each time. The concentration for total growth inhibition (TGI) in [7], in assay [8] and in [9] was over 100 µM in each case.

On to `CO[C@H]1/C=C/O[C@@]2(C)Oc3c(C)c(O)c4c(O)c(c(/C=N/N5CCN(C)CC5)c(O)c4c3C2=O)NC(=O)/C(C)=C\C=C\[C@H](C)[C@H](O)[C@@H](C)[C@@H](O)[C@@H](C)[C@H](OC(C)=O)[C@@H]1C`, for which the TGI in [1], in assay [3], in assay [4], in assay [7], in assay [10] and in assay [9] was over 100 µM each time.

Regarding `COc1ccccc1-c1cc(=O)c2cc(C)c(C)c(C(=O)O)c2o1`, the TGI in [1], in assay [2], in assay [3], in assay [4], in assay [5] and in assay [6] was over 100 µM throughout. Further, the total growth inhibition concentration (TGI) in assay [7], in [8] and in assay [9] was over 100 µM in each case.

`COc1ccc(/C=C2\CCC(CCN(C)C)(C3=CCCC3)C2=O)cc1` (stereo unspecified): the total growth inhibition concentration (TGI) in assay [1] was 33.2 µM; in assay [2] it was 55.2 µM; in assay [3] it was 40.5 µM; in assay [4], 48.7 µM; in assay [5], 31.6 µM; in assay [6], 30.8 µM. The concentration for total growth inhibition (TGI) in [7] came out at 28.2 µM; in assay [8] it was 33.4 µM; in assay [9], 34.9 µM.

As for `CCOc1cccc2c1N[S@@](=O)S2`, the total growth inhibition concentration (TGI) in assay [1], in [2], in assay [3], in assay [4], in assay [5] and in [6] was over 100 µM each time. The TGI in [7] and in assay [8] was over 100 µM each time.

Consider `OC1=CN=COc2ccccc21`, for which the total growth inhibition concentration (TGI) in [1], in assay [2], in assay [3], in [4], in assay [5] and in [6] was over 100 µM in each case. Moreover, the total growth inhibition concentration (TGI) in assay [7], in assay [8] and in [9] was over 100 µM throughout.

For the molecule `CCCCCCC(O)CC[C@H]1CCC[C@@H](C)N1` (stereo partly specified), the total growth inhibition concentration (TGI) was over 100 µM in [1]; over 31.6 µM in assay [2]; over 100 µM in [3]; over 100 µM in assay [4]; under 10 µM in assay [5]; over 100 µM in [6]. In addition, the figures for the TGI in [7], in assay [8] and in assay [9] were over 100 µM, over 31.6 µM and under 10 µM, respectively.

Consider `CCC1=CCN(c2cc(C)ccn2)OC1c1ccccc1` (stereo unspecified), for which the TGI in [1] is over 100 µM; in [2], over 100 µM; in assay [3], over 100 µM; in assay [4] it was 67.1 µM; in assay [5], over 100 µM; in assay [6] it was over 100 µM. For the same molecule, the concentration for total growth inhibition (TGI) in assay [7], in assay [8] and in [9] was over 100 µM each time.

As for `COC(=O)C(C(=O)C(=O)Nc1ccc(C)cc1C)c1csc(-n2nc(-c3ccccc3)cc2-c2ccccc2)n1` (stereo unspecified), the concentration for total growth inhibition (TGI) in [1] is over 100 µM; in assay [2], 52.6 µM; in assay [3] it was over 100 µM; in [5], over 100 µM; in assay [7], over 100 µM; in assay [9], over 100 µM.

For `CC1(C)COC2C(N(Cc3ccccc3)Cc3ccccc3)C(=O)N21` (stereo unspecified), the TGI in assay [1] is over 100 µM; in assay [2], 41.2 µM; in assay [3] it was over 100 µM; in [4], 91.3 µM; in [5] it was 71.8 µM; in assay [6] it was 69.8 µM. Further, the TGI in assay [7] was over 100 µM; in assay [8], 88.8 µM; in assay [9] it was over 100 µM.

`CC1=Nc2ccccc2SC(c2c(Cl)cccc2Cl)C1` (stereo unspecified): the total growth inhibition concentration (TGI) in assay [1] was determined as 3.31 µM; in assay [2] it was 5.67 µM; in [3], 2.7 µM; in assay [4], 3.09 µM; in assay [5], 2.7 µM; in assay [6] it was 2.72 µM. Further, the total growth inhibition concentration (TGI) amounted to 3.09 µM in [7], 2.79 µM in [8] and 0.588 µM in assay [9].

In the case of `CN/N=C(/c1nc2ccc([N+](=O)[O-])cc2[nH]c1=O)C(O)c1ccc(C(O)/C(=N\NC)c2nc3ccc([N+](=O)[O-])cc3[nH]c2=O)cc1` (stereo unspecified), the total growth inhibition concentration (TGI) in [1], in assay [2], in assay [4], in [5], in assay [6] and in assay [7] was over 100 µM each time. Moreover, the TGI in assay [8] and in assay [9] was over 100 µM in each case.

As to `C#CCN(N=O)C(=O)ON1C(=O)CCC1=O`, the concentration for total growth inhibition (TGI) in [1], in assay [2], in assay [3], in assay [4], in assay [5] and in [6] was over 100 µM throughout. Further, the concentration for total growth inhibition (TGI) in assay [7], in assay [8] and in assay [9] was over 100 µM in each case.

With `O=C1CCC2(c3ccccc3)Nc3ccccc3N12` (stereo unspecified), the TGI in assay [1], in assay [2], in assay [3], in assay [4], in assay [6] and in [7] was over 100 µM in each case. Besides, the total growth inhibition concentration (TGI) in assay [8] and in [9] was over 100 µM each time.

As to `O=C1c2ccccc2C(=O)C12CCc1ccccc12`, the TGI in assay [1], in [2], in assay [3], in assay [7], in assay [8] and in [9] was over 100 µM each time.

On to `COc1cc2c(c3c1c(=O)c1ccccc1n3C)C=CC(C)(C)O2`, for which the TGI in assay [1], in assay [2], in assay [3], in [4], in assay [5] and in assay [6] was over 100 µM each time. Also, the total growth inhibition concentration (TGI) in [7], in [8] and in [9] was over 100 µM each time.

On to `C=C1C(=O)C23[C@H](O)C1CC[C@H]2[C@]12COC3(O)[C@@H](O)[C@@H]1C(C)(C)CC[C@@H]2O`, for which the TGI in assay [1] is 38.7 µM; in assay [2], 38.7 µM; in [3], 35.3 µM; in [4] it was 29.3 µM; in [5], 32.7 µM; in [6] it was 22.6 µM. Also, the concentration for total growth inhibition (TGI) was 29 µM in assay [7], 32.2 µM in assay [8] and 27.2 µM in assay [9].

`CN(C)C(=S)/N=c1\ssc(=S)n1C`: the TGI in assay [1], in [2], in assay [3], in assay [4], in assay [5] and in assay [6] was over 100 µM throughout. The TGI in assay [7], in assay [8] and in assay [9] was over 100 µM throughout.

Take `CN(C)c1ccc(/C=C(\NC(=O)c2ccccc2)c2nc3ccc4c(c3[nH]2)C(=O)c2ccccc2C4=O)cc1`: the TGI in [1] is over 100 µM; in [2] it was 64.2 µM; in [3], over 100 µM; in assay [4], over 100 µM; in assay [5], over 100 µM; in assay [6], over 100 µM. Further, the results for the concentration for total growth inhibition (TGI) in assay [7], in assay [8] and in assay [9] were 7.37 µM, over 100 µM and over 100 µM, respectively.

Take `COc1ccc(/C=C(\NC(=O)c2ccccc2)c2nc3ccccc3[nH]2)cc1OC`: the total growth inhibition concentration (TGI) in assay [1], in [2], in assay [3], in assay [4], in assay [5] and in [6] was over 100 µM each time. Besides, the total growth inhibition concentration (TGI) in [7], in [8] and in assay [9] was over 100 µM in each case.

A word on the GI50: it is the concentration giving 50% growth inhibition. As for `CC(=O)OC(C(=O)[O][Sn]([CH3])([CH3])[CH3])c1ccccc1` (stereo unspecified), the GI50 in assay [1], in [2], in assay [3], in [4], in [5] and in assay [6] was over 100 µM in each case. Further, the GI50 in assay [7], in [8] and in assay [9] was over 100 µM in each case. Moreover, the TGI in [1], in [2], in assay [3], in assay [4], in assay [5] and in assay [6] was over 100 µM each time. The concentration for total growth inhibition (TGI) in assay [7], in assay [8] and in assay [9] was over 100 µM throughout.

Source of the values: PubChem BioAssay (NCI).
